Measurements published in article PMC8617031, “Development of a BCL-xL and BCL-2 dual degrader with improved anti-leukemic activity,” (Nature Communications, 2021).
Values joined by “and” are separate entries in the source; they are usually repeats but may differ in a detail not shown here. Equal entries are not always repeated.

Assays:
[1] = biological target: T1, BCL-xL/PROTAC/VHL-ELOC-ELOB (VCB) ternary complex (Homo sapiens, UniProt P40337+Q07817); test: AlphaLISA ternary complex formation, cell-free, BCL-xL; assay type: binding; settings: for in vitro ternary complex formation with BCL-xL (in words): AlphaLISA, cell-free, Fig. 2c, 3e; for AlphaLISA signal, BCL-xL/PROTAC/VCB: Fig. 2c raw Alpha reads
T1 construct: pGEX-6P-1-VHL(54-213) (pDL2200) was constructed through Gibson assembly method; made in house; host or cells: bacterial culture (LB broth, IPTG induction)
Experimental: (§1) AlphaLISA assay was used to evaluate the in vitro ternary complex formation between target proteins (BCL-xL or BCL-2), PROTAC and E3 ligase (VCB complex). In each well, 5 nM His-tagged BCL-xL or BCL-2 proteins and 5 nM GST-VCB complex was incubated with varying concentrations of compounds in fourfold serial dilutions, to a final volume of 40 µl in a 96-well PCR plate. After incubation at room temperature for 30 min, 5 µl alpha glutathione-donor beads (Cat. No. 6765300, PerkinElmer) were added to each well (20 µg/ml final concentration) and incubated for another 15 min. Thereafter, 5 µL 6× His-acceptor beads were added to each well (20 µg/ml final concentration) and incubated for an additional 45 min at room temperature. Thereafter, 17 µl of each sample was transferred in adjacent wells of a 384-well proxy plate, and the plate was scanned using the Alpha program on Biotek’s Synergy Neo2 multimode plate reader. The data were expressed as average AlphaLISA signal and plotted against different concentrations of compounds using GraphPad Prism 9 software.

[2] = biological target: T2, BCL-2/PROTAC/VCB ternary complex (Homo sapiens, UniProt P10415+P40337); test: AlphaLISA ternary complex formation, cell-free, BCL-2; assay type: binding; settings: for in vitro ternary complex formation with BCL-2 (in words): AlphaLISA, cell-free, Fig. 2d, 3f; for AlphaLISA signal, BCL-2/PROTAC/VCB: Fig. 2d raw Alpha reads
T2 construct: pGEX-6P-1-VHL(54-213) (pDL2200) was constructed through Gibson assembly method; made in house; host or cells: bacterial culture (LB broth, IPTG induction)
Experimental: as §1

[3] = compound 200000 nM, 2 technical replicates

T2 sequence (P10415 1-211 limits assumed): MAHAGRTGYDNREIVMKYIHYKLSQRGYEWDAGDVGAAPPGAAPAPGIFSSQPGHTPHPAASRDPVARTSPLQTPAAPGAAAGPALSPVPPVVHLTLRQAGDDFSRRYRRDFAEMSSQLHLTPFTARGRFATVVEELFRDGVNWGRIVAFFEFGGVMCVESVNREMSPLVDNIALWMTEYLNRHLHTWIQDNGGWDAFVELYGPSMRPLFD
T2 sequence (P40337 54-213 limits assumed): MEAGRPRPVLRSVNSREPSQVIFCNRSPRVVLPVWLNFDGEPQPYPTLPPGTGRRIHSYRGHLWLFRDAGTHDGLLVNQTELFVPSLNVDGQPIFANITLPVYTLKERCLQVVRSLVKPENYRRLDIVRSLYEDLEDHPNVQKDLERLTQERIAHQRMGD
T2 sequence (Q15369 17-112 partner limits assumed): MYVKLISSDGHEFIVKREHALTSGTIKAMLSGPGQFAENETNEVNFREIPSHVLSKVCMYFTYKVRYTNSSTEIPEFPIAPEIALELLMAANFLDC
T2 sequence (Q15370 whole entry partner): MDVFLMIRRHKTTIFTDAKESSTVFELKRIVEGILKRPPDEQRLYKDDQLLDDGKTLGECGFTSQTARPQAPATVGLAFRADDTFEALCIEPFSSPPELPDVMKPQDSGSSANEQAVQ
T1 sequence (Q07817 1-212 limits assumed): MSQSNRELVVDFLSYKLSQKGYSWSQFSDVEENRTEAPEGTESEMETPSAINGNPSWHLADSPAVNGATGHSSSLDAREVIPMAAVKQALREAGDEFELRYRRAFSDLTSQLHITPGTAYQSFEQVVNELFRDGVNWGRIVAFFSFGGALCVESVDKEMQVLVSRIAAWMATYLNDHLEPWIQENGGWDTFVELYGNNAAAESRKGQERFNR
T1 sequence (P40337 54-213 limits assumed): as the sequence (P40337 54-213 limits assumed) above
T1 sequence (Q15369 17-112 partner limits assumed): as the sequence (Q15369 17-112 partner limits assumed) above
T1 sequence (Q15370 whole entry partner): as the sequence (Q15370 whole entry partner) above

Structure (SMILES)	in vitro ternary complex formation with BCL-xL (in words) [1]	AlphaLISA signal, BCL-xL/PROTAC/VCB ([1]; compound 0.191 nM)	AlphaLISA signal, BCL-xL/PROTAC/VCB ([1]; compound 0.763 nM)	AlphaLISA signal, BCL-xL/PROTAC/VCB ([1]; compound 3.052 nM)	AlphaLISA signal, BCL-xL/PROTAC/VCB ([1]; compound 12.207 nM)	AlphaLISA signal, BCL-xL/PROTAC/VCB ([1]; compound 48.828 nM)	AlphaLISA signal, BCL-xL/PROTAC/VCB ([1]; compound 195.31 nM)	AlphaLISA signal, BCL-xL/PROTAC/VCB ([1]; compound 781.25 nM)	AlphaLISA signal, BCL-xL/PROTAC/VCB ([1]; compound 3125 nM)	AlphaLISA signal, BCL-xL/PROTAC/VCB ([1]; compound 12500 nM)	AlphaLISA signal, BCL-xL/PROTAC/VCB ([1]; compound 50000 nM)	AlphaLISA signal, BCL-xL/PROTAC/VCB [1, 3]	in vitro ternary complex formation with BCL-2 (in words) [2]	AlphaLISA signal, BCL-2/PROTAC/VCB ([2]; compound 0.191 nM)	AlphaLISA signal, BCL-2/PROTAC/VCB ([2]; compound 0.763 nM)	AlphaLISA signal, BCL-2/PROTAC/VCB ([2]; compound 3.052 nM)	AlphaLISA signal, BCL-2/PROTAC/VCB ([2]; compound 12.207 nM)	AlphaLISA signal, BCL-2/PROTAC/VCB ([2]; compound 48.828 nM)	AlphaLISA signal, BCL-2/PROTAC/VCB ([2]; compound 195.31 nM)	AlphaLISA signal, BCL-2/PROTAC/VCB ([2]; compound 781.25 nM)	also measured
Cc1ncsc1-c1ccc([C@H](C)NC(=O)[C@@H]2C[C@@H](O)CN2C(=O)[C@@H](NC(=O)CCCCCCCC(=O)N2CCN(CC3(C)CCC(c4ccc(Cl)cc4)=C(CN4CCN(c5ccc(C(=O)NS(=O)(=O)c6ccc(N[C@H](CCN7CCOCC7)CSc7ccccc7)c(S(=O)(=O)C(F)(F)F)c6)cc5)CC4)C3)CC2)C(C)(C)C)cc1 (stereo partly drawn) [PPC9]	much weaker ternary complexes	17022 and 14292	18582 and 21901	16005 and 18766	39343 and 38049	159552 and 171121	340009 and 336400	265891 and 255043	73854 and 131135	17390 and 24043	11384 and 10586	11935 and 10943	much weaker ternary complexes	13571 and 17652	17336 and 18248	22108 and 21304	71357 and 62189	336659 and 328291	357647 and 419151	267337 and 283839	AlphaLISA signal, BCL-2/PROTAC/VCB ([2]; compound 3125 nM): 78279 and 78565; AlphaLISA signal, BCL-2/PROTAC/VCB ([2]; compound 12500 nM): 15094 and 15494; AlphaLISA signal, BCL-2/PROTAC/VCB ([2]; compound 50000 nM): 7032 and 8982; AlphaLISA signal, BCL-2/PROTAC/VCB [2, 3]: 9255 and 9885
Cc1ncsc1-c1ccc([C@H](C)NC(=O)[C@@H]2C[C@@H](O)CN2C(=O)[C@@H](NC(=O)CCCCC(=O)N2CCN(CC3(C)CCC(c4ccc(Cl)cc4)=C(CN4CCN(c5ccc(C(=O)NS(=O)(=O)c6ccc(N[C@H](CCN7CCOCC7)CSc7ccccc7)c(S(=O)(=O)C(F)(F)F)c6)cc5)CC4)C3)CC2)C(C)(C)C)cc1 (stereo partly drawn) [PPC6]	stronger ternary complexes	15802 and 16724	18968 and 16877	31177 and 28685	217997 and 245739	796343 and 866530	952961 and 938632	936762 and 1084189	603765 and 595968	155340 and 139952	73929 and 84434	25477 and 29119	stronger ternary complexes	16425 and 15906	18031 and 17435	30431 and 31755	272991 and 264284	1222232 and 1254048	1139558 and 1151559	1076543 and 1153682	AlphaLISA signal, BCL-2/PROTAC/VCB ([2]; compound 3125 nM): 286448 and 313784; AlphaLISA signal, BCL-2/PROTAC/VCB ([2]; compound 12500 nM): 33420 and 31990; AlphaLISA signal, BCL-2/PROTAC/VCB ([2]; compound 50000 nM): 13658 and 13269; AlphaLISA signal, BCL-2/PROTAC/VCB [2, 3]: 8289 and 7903
